Measurements as given in patent publication US20120183580A1, “Analgesic Composition for Transbuccal Administration” (priority 2011, published 2012).
Like-named read-outs stand apart in the source and are kept apart here. Where a SMILES comes first, the peptide text is derived from it.

Assays:
[1] = cited from earlier work; for bioavailability by the sublingual route: oxytocin in physiological saline solution
rats [2] = experiment: elevated-plus maze test; details: rat, in vivo
Description: Two opposite arms of the elevated-plus maze are enclosed by high walls (closed arms) while the other two are not (open arms). The test animals (rats) naturally prefer and spend more time in the closed aims.

Swiss albino mice [3] = details: mouse, in vivo
Description: Swiss albino mice (30-35 g) were injected with saline, the peptide (5 mg/kg, 50 mg/kg intraperitoneal) or morphine (0.5 mg/kg, 5 mg/kg, 50 mg/kg intraperitoneal). The experimenters are blind to the identity of the solutions. All mice were administered 5 mg charcoal (0.1 ml of 50 mg/ml charcoal solution) via oral gavage immediately after drug administration. At 30 min post-drug/charcoal administration, the mice were sacrificed by cervical dislocation and the GI tract was exposed and the location of the charcoal identified. The distance the charcoal traveled in the intestine from the stomach was measured and expressed as % of total length of the GI tract.

Swiss albino mice [4] = tested on: Swiss albino mice
Description: Swiss albino mice (˜30-40 g) were first placed into their respective chambers with a 20 min pre-treatment recording. Only mice showing at least 50 counts/5 min are used in the experiments. Mice were administered saline (control), peptide (5 or 50 mg/kg) or morphine (50 mg/kg). Experimenters were blind to the identity of the drug solutions. […] Statistical comparison was done by 2-way ANOVA.

Swiss albino mice [5] = tested on: Swiss albino mice; remark: listed apart in the source
Description: Swiss albino mice (˜20-30 g) were first trained on the rotarod, which accelerated from 0-20 rpm over 5 min, prior to the experiment. Only mice that were capable of staying on the rotarod for the entire 5 min period were used in this experiment. Mice were either administered with the peptide (1 or 10 mg/kg, sublingual), or morphine (20 mg/kg, subcutaneous). After drug administration, the animals are placed on the rotarod and the time taken for the mice to slip was recorded (up to 5 min), and subsequently at 1 h, 2 h and 3 h post peptide, and at 30 min, 1 h 30 min and 2 h 30 min post morphine. Statistical comparison was done by either Student's t-test or one-way ANOVA.

[6] = pharmacokinetics: plasma concentration by LC/MS/MS after sublingual, intravenous, oral, intraperitoneal administration; type: in vivo, mice; details: mouse
Description: The peptide (1, 5, 15 and 25 mg/kg, 0.5 ml/kg) was administered sublingually to mice. Upon reaching specified time points of 1, 5, 15, 30, 60 and 120 min post-dose, each mouse was sacrificed and blood samples were collected via cardiac puncture. Plasma samples were then extracted and analyzed under LC/MS/MS.
Systemic exposure of the peptide was also studied through intravenous, oral (gavage) and intraperitoneal routes.

rats [7] = details: 1 or 50 mg/kg intraperitoneal, vs saline control
Description: The open field was divided into 16 equal size squares (25×25 cm). The 4 squares at the centre are assigned a low anxiety score (0) while those at the 4 corners are assigned a high anxiety score (2). The remaining 8 squares are assigned a medium score (1). A rat entering each square will be given the score assigned to that square. The sum total obtained within the 5-min test period divided by the number of squares entered is the anxiety score for that rat. Diazepam was used as positive control. Statistical comparison was done by Student's t-test.

acute high dose toxicity = type: in vivo, mice; details: mouse, in vivo; intravenous, mice
Description: (§1) Acute toxicity was determined by both oral and intravenous administration of the peptide. Three mice were given a dose of peptide at 2 g/kg orally by gavage, 5 ml/kg.

mice = experiment: acute high dose toxicity; type: in vivo
Description: as §1

Swiss albino mice [8] = experiment: toxicity, multiple dose regimen; type: in vivo; details: 8 or 80 mg/kg intraperitoneal daily, 14 days
Description: (§2) Swiss albino mice were administered with the peptide at 8 mg/kg or 80 mg/kg (intraperitoneal) once daily for 14 days. Control mice received saline. At the end of the period, all mice were killed, dissected and observed for any obvious abnormality. Weights of the major organs, including brain, heart, lung, liver, spleen and kidney, were recorded.

C57 mice = type: in vivo; details: 8 or 80 mg/kg intraperitoneal once daily for 14 days
Description: as §2
The multiple dose toxicity testing was repeated exactly as described above except that C57 mice were used instead of Swiss albino mice. Similar results were obtained in terms of body weights, vital organ weights and behavior of control and treated animals (data not shown).

Swiss albino mice [9] = experiment: toxicity, single dose regimen; type: in vivo; details: single dose 8 or 80 mg/kg intraperitoneal, day 14
Description: as §2, with “on day 1 and then observed” for “once daily”, “sacrificed,” for “killed,”

Sprague-Dawley rats = experiment: acute effect on blood pressure in anesthetized rats; type: in vivo; details: for effect on blood pressure: 5 and 20 mg/kg
Description: Sprague-Dawley rats (˜300 g) were anesthetized and the carotid artery was cannulated for blood pressure measurement. Drugs were administered by the pre-determined route. A pulse transducer was secured across the thoracic region of the rat to allow measurement of respiration rate. Blood pressure was recorded for at least 15 min or until a relatively stable blood pressure was observed.

NC(=O)CC[C@@H]1NC(=O)[C@H](Cc2ccccc2)NC(=O)[C@H](Cc2ccc(O)cc2)NC(=O)CCSSC[C@@H](C(=O)N2CCC[C@H]2C(=O)N[C@H](CCCN=C(N)N)C(=O)NCC(N)=O)NC(=O)[C@H](CC(N)=O)NC1=O [desmopressin]
bioavailability by the sublingual route [1]: about 0.25%

CN1C(=O)CN=C(c2ccccc2)c2cc(Cl)ccc21 [diazepam]
time spent in the open or closed arms (rats [2]): reversed the times spent in open and closed arms

CN1CC[C@]23c4c5ccc(O)c4O[C@H]2[C@@H](O)C=C[C@H]3[C@H]1C5 [morphine, reference compound]
GI motility (distance traveled by charcoal) (Swiss albino mice [3]): dose-dependently decreased GI motility | locomotor activity vs control (Swiss albino mice [4]; mouse, in vivo): significant increase in locomotive activities | motor-coordination (time on rotarod) (Swiss albino mice [5]; mouse, in vivo): No statistical significant effects

CC[C@H](C)[C@@H]1NC(=O)[C@H](Cc2ccc(O)cc2)NC(=O)[C@@H](N)CSSC[C@@H](C(=O)N2CCC[C@H]2C(=O)N[C@@H](CC(C)C)C(=O)NCC(N)=O)NC(=O)[C@H](CC(N)=O)NC(=O)[C@H](CCC(N)=O)NC1=O [oxytocin]
bioavailability ([1]; formulation including 0.75% w/w sodium taurocholate (tablet form)): 27% | bioavailability by the sublingual route [1]: 0.007-0.07%

C[C@@H](O)[C@H](NC(=O)[C@@H]1CCCN1C(=O)[C@H](Cc1ccccc1)NC(=O)[C@@H]1CCCN1C(=O)[C@@H](N)CC(N)=O)C(=O)N[C@@H](Cc1c[nH]c2ccccc12)C(=O)N[C@@H](CCCNC(=N)N)C(=O)N[C@@H](CCCCN)C(=O)N[C@@H](CCCNC(=N)N)C(=O)N1CCC[C@H]1C(=O)NCC(=O)O [the peptide, NPFPTWRKRPG] (H-NPFPTWRKRPG-OH; N-terminus and C-terminus assumed)
bioavailability ([6]; 25 mg/kg, sublingual route, AUC compared to intravenous route): 44% | Tmax ([6]; after sublingual administration, read-out: time of highest level in the plasma (converted)): 5 min | anxiety score (rats [7]): did not show any effect | LD50 at 2 weeks (acute high dose toxicity): ~125 mg/kg | clinical observation (mice; 62.5 mg/kg intravenous): appeared sedated | clinical observation, surviving mice (mice; 125 mg/kg intravenous): appeared heavily sedated for several hours | clinical observation (mice; 2 g/kg oral by gavage): appeared sedated with much decreased activity | locomotor activity vs control (Swiss albino mice [4]; 5 or 50 mg/kg, within 4 h of drug administration): no significant difference | organ appearance (Swiss albino mice [8]): All organs appeared normal | motor-coordination (time on rotarod) (Swiss albino mice [5]; 1 or 10 mg/kg sublingual, up to 3 h post-dose): No statistical significant effects | death (C57 mice): No death occurred | organ appearance (Swiss albino mice [9]): All organs appeared normal | effect on blood pressure (Sprague-Dawley rats; intravenous route): decreased in blood pressure | effect on blood pressure (Sprague-Dawley rats; sublingual or intraperitoneal routes): did not cause any changes in blood pressure | heart rate and respiration rate (Sprague-Dawley rats; all experiments (5 and 20 mg/kg, all routes)): No significant changes
